From ChEMBL document CHEMBL5154857, “Discovery of potential novel CRBN modulators by virtual screening and bioassay” (Eur J Med Chem, 2022)

How the values were obtained:
Format in all cases: functional
HL-60 = assay: Antitumor activity against human HL-60 cells assessed as inhibition of cell growth at 40 uM incubated for 48 hrs by MTS assay relative to control
A549 [1] = assay: Antitumor activity against human A549 cells assessed as inhibition of cell growth at 40 uM incubated for 48 hrs by MTS assay relative to control
SMMC-7721 = assay: Antitumor activity against human SMMC-7721 cells assessed as inhibition of cell growth at 40 uM incubated for 48 hrs by MTS assay relative to control
MCF7 = assay: Antitumor activity against human MCF7 cells assessed as inhibition of cell growth at 40 uM incubated for 48 hrs by MTS assay relative to control
SW480 = assay: Antitumor activity against human SW480 cells assessed as inhibition of cell growth at 40 uM incubated for 48 hrs by MTS assay relative to control
A549 [2] = assay: Induction of apoptosis in human A549 cells assessed as live cells at 1 uM measured after 24 hrs by Annexin V-PE/7-AAD dual staining based flow cytometry (reference value: 93.3 %)
A549 [3] = assay: Induction of apoptosis in human A549 cells assessed as early apoptotic cells at 1 uM measured after 24 hrs by Annexin V-PE/7-AAD dual staining based flow cytometry (reference value: 4.04 %)
A549 [4] = assay: Induction of apoptosis in human A549 cells assessed as late apoptotic cells at 1 uM measured after 24 hrs by Annexin V-PE/7-AAD dual staining based flow cytometry (reference value: […])
A549 [5] = assay: Induction of apoptosis in human A549 cells assessed as necrotic cells at 1 uM measured after 24 hrs by Annexin V-PE/7-AAD dual staining based flow cytometry (reference value: 0.150 %)

## NC(=O)CN1C(=O)C(O)(CC(=O)c2ccc3c(c2)OCO3)c2ccccc21 (centres undefined)
HL-60
  inhibition at 40 µM: 21.6%
A549 [1]
  inhibition at 40 µM: 11.2%
SMMC-7721
  inhibition at 40 µM: 11.6%
MCF7
  inhibition at 40 µM: 6.11%
SW480
  inhibition at 40 µM: 14.8%

## COc1cc(C(C)=O)ccc1OC(=O)C(C)N1C(=O)c2ccccc2C1=O (centres undefined)
HL-60
  inhibition at 40 µM: 8.86%
A549 [1]
  inhibition at 40 µM: 6.5%
SMMC-7721
  inhibition at 40 µM: 6.87%
MCF7
  inhibition at 40 µM: 15.3%
SW480
  inhibition at 40 µM: 4.18%

## CCOC(=O)C1(Cc2ccccc2)C(=O)N(CCCN(C)C)c2ccccc21 (centres undefined)
HL-60
  inhibition at 40 µM: 5.85%
A549 [1]
  inhibition at 40 µM: 7.46%
SMMC-7721
  inhibition at 40 µM: 12.8%
MCF7
  inhibition at 40 µM: 28.9%
SW480
  inhibition at 40 µM: 3.98%

## O=C(NCC1(N2CCOCC2)CCCCC1)c1ccc2c(c1)C(=O)N(c1ccc(F)cc1)C2=O
HL-60
  inhibition at 40 µM: 11.5%
A549 [1]
  inhibition at 40 µM: 9.68%
SMMC-7721
  inhibition at 40 µM: 16.4%
MCF7
  inhibition at 40 µM: 13.6%
SW480
  inhibition at 40 µM: 8.82%

## Cc1cccc(NC(=O)CN2C(=O)C(=O)c3ccccc32)c1
HL-60
  inhibition at 40 µM: 25.1%
A549 [1]
  inhibition at 40 µM: 7.75%
SMMC-7721
  inhibition at 40 µM: 40.2%
MCF7
  inhibition at 40 µM: 45.2%
SW480
  inhibition at 40 µM: 31.8%

## O=C(CC1(O)C(=O)N(CN2CCOCC2)c2ccccc21)c1ccc(Cl)cc1 (centres undefined)
HL-60
  inhibition at 40 µM: 15.6%
A549 [1]
  inhibition at 40 µM: 1.72%
SMMC-7721
  inhibition at 40 µM: 15.2%
MCF7
  inhibition at 40 µM: 8.23%
SW480
  inhibition at 40 µM: 15.3%

## COc1cccc2c1C(=O)c1c(O)c3c(c(O)c1C2=O)C[C@@](O)(C(=O)CO)C[C@@H]3O[C@H]1C[C@H](N)[C@H](O)[C@H](C)O1 [DOXORUBICIN]
A549 [2]
  Activity: 49.8%
A549 [3]
  Activity: 30.8%
A549 [4]
  Activity: 18.4%
A549 [5]
  Activity: 0.965%

## CC1=CC(C2CC(=O)N(c3ccccc3C)C2=O)CC2C(=O)N(c3ccccc3C)C(=O)C12 (centres undefined)
HL-60
  inhibition at 40 µM: 10.7%
A549 [1]
  inhibition at 40 µM: 4.1%
SMMC-7721
  inhibition at 40 µM: 9.68%
MCF7
  inhibition at 40 µM: 12.3%
SW480
  inhibition at 40 µM: 6.73%

## N#CCCCN1C(=O)C(O)(CC(=O)c2ccc3c(c2)OCCO3)c2ccccc21 (centres undefined)
HL-60
  inhibition at 40 µM: -21.4%
A549 [1]
  inhibition at 40 µM: 7.13%
SMMC-7721
  inhibition at 40 µM: 11.5%
MCF7
  inhibition at 40 µM: -0.19%
SW480
  inhibition at 40 µM: 13.5%
